Results as given in US20240124427A1, “HYDROXYHETEROCYCLOALKANE-CARBAMOYL DERIVATIVES” (Idorsia Pharmaceuticals Ltd, priority 2021, published 2024).

What was measured:
human Gal-1 (hGal-1) = human Gal-1 (hGal-1) (Homo sapiens, UniProt P09382); type: binding
human Gal-3 (hGal-3) = human Gal-3 (hGal-3) (Homo sapiens (Human), UniProt P17931); assay: Competitive binding assay: biotinylated hGal-3 binding to microplate-adsorbed asialofetuin (ASF)
In short: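 Biotinylated human Gal-3 binding to plate-adsorbed asialofetuin, competed by compound, 3 h at 4 °C. Bound protein detected with streptavidin-peroxidase (1 h, 4 °C) and ABTS substrate. IC50 reported as mean of several measurements.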

human Gal-1 (hGal-1), sequence (P09382 2-135 limits assumed): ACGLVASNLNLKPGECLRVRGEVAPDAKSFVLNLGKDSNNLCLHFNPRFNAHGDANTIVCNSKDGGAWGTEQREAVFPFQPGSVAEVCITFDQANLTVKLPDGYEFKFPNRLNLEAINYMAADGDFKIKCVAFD
human Gal-3 (hGal-3), sequence (P17931 whole entry): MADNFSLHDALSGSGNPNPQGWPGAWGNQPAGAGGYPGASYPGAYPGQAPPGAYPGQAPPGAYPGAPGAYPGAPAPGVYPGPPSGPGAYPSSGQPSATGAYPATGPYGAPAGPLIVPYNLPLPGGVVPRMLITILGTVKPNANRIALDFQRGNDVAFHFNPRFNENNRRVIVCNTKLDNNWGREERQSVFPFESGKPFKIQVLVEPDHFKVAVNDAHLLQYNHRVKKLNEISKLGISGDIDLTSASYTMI

## CO[C@@H]1[C@@H](n2cc(-c3ccc(Cl)c(Cl)c3)nn2)[C@@H](O)[C@@H](CO)O[C@H]1C(=O)N(c1cc(Cl)cc(Cl)c1)[C@@H]1CN(C(C)=O)C[C@H]1O [Example 88]
Human Gal-1 (hGal-1)
  IC50: 657 nM
Human Gal-3 (hGal-3)
  IC50: 71 nM
